The results in this text go back to patent EP4722195A1, “PH-SENSITIVE CATIONIC LIPID AND LIPID NANOPARTICLES” (National University Corporation Hokkaido University, priority 2023, dated 2024).

The nature of data set [1]: Average particle size and polydispersity index of lipid nanoparticles (dynamic light scattering). It is filed as physicochemical. The method, then:
(§1) The average particle size (number average value), ζ-average particle size, and polydispersity index (PdI) of the lipid nanoparticles in PBS(-) (pH 7.4), and the zeta potential in 10 mM HEPES buffer (pH 7.4) were measured using an analyzer "Zetasizer Nano ZS ZEN3600" (manufactured by Malvern) utilizing dynamic light scattering.

A short description of data set [2]: Zeta potential of lipid nanoparticles. The format is physicochemical. The method, then:
as §1

Data set [3] is described as follows: Encapsulation rate of lipid nanoparticles (Ribogreen). It is filed as physicochemical. How it is done:
The encapsulation rate of the lipid nanoparticles was determined by measuring the amount of encapsulated nucleic acid (mRNA) using Ribogreen (manufactured by Life Technologies), which is an RNA intercalator. The mRNA amount was quantified based on a calibration curve prepared from a series of diluted mRNA solutions at known concentrations.
Specifically, 10 mM HEPES buffer (pH 7.4), 10 w/v% Triton X-100, and Ribogreen were mixed at 978.8 µL, 20 µL, and 1.25 µL per 10 wells, respectively, to obtain a Triton(+) buffer. A Triton(-) buffer was obtained in replacing Triton X-100 with 10 mM HEPES buffer (pH 7.4). 100 µL/well of the sample was added to a black 96-well plate for fluorescence measurement, and 100 µL/well of Triton(+) buffer or Triton(-) buffer was added. After the plate was gently shaken on a shaking incubator (SI-300, manufactured by AS ONE) (700 rpm, 30 seconds), the fluorescence intensity of each well was measured using a microplate reader (VARIOSKAN LUX, manufactured by Thermo Fisher Scientific) (wavelength Ex/Em=500 nm/525 nm), and the nucleic acid encapsulation rate (%) was calculated.

Data set [4] in a line: Apparent pKa of lipid nanoparticles (TNS).
Experimental: The apparent pKa of the lipid nanoparticles was measured using p-toluenesulfonic acid (TNS). First, TNS (final concentration: 0.75 µM) and lipid nanoparticles (final concentration: 30 µM) were mixed in a buffer (200 mL) adjusted to each pH (pH 3.5 to 9.5). As the buffer, 20 mM citrate buffer, 20 mM sodium phosphate buffer, or 20 mM Tris-HCl buffer containing 130 mM NaCl was used. The fluorescence intensity of the prepared mixture was measured using a fluorescence spectrophotometer (Varioskan Lux, manufactured by Thermo Fisher Scientific) with the settings of λex=321 nm and λem=447 nm. Among the measured values, the highest value and the lowest value were set as 100% and 0% ionization degrees, respectively, and the pH showing a 50% ionization degree was calculated as the apparent pKa. The content ratio (%) of cationically charged pH-sensitive cationic lipid was calculated using the Henderson-Hasselbalch equation.
The next data set deals with liver. The data set is described as follows: EGFP expression in liver tissue sections of mice administered EGFP mRNA-loaded lipid nanoparticles (confocal microscopy). The format is in vivo, Balb/c mice. To be noted: Example 27, Fig. 6; EGFP mRNA-loaded lipid nanoparticles TxT/DSPC/chol/PEG-DMG=50/3/47/1.5 (mol%); 24 hours post-administration. How it is done: Subsequently, each EGFP mRNA-loaded lipid nanoparticle was administered to Balb/c mice at a dose of 0.2 mg mRNA/kg. At 23 hours and 50 minutes post-administration, fluorescently labeled lectin (DyLight-649 Lycopersicon (Tomato) Lectin) was intravenously injected via the tail vein at 40 µg/mouse to fluorescently label vascular endothelial cells. At 24 hours after administration of the lipid nanoparticles, the mice were euthanized, and their livers were collected to prepare tissue sections. For nuclear staining, the tissue sections were immersed in a nuclear staining solution (1 µg/mL Hoechst 33342 dissolved in PBS(-)), cooled on ice, and incubated for at least 30 minutes in the dark. The stained tissue sections were then observed using a confocal laser scanning microscope. Subsequently, in the same manner as Example 26, each EGFP mRNA-loaded lipid nanoparticle was administered to Balb/c mice. At 23 hours and 50 minutes post-administration, fluorescently labeled lectin was administered. At 24 hours after administration of the lipid nanoparticles, the mice were euthanized, and their livers were collected to prepare tissue sections. Each tissue section was observed using a confocal laser scanning microscope. In the figure, the upper panels show fluorescence images of EGFP, and the lower panels show fluorescence images of vascular endothelial cells (fluorescently labeled lectin).

Setting [5] is: Table 1, Fluc mRNA-loaded lipid nanoparticles, TxT/DSPC/chol/PEG-DMG=50/15/35/1.5 (mol%).
The mark [6] stands for this setting: Table 3, Fluc mRNA-loaded lipid nanoparticles, TxT/DSPC/chol/PEG-DMG=50/3/47/1.5 (mol%).
[7] abbreviates: Table 5, EGFP mRNA-loaded lipid nanoparticles, TxT/DSPC/chol/PEG-DMG=50/3/47/1.5 (mol%), total flow rate 3.0 mL/min.
[8] abbreviates: Table 4, Fluc mRNA-loaded lipid nanoparticles, TxT-5-5A14/DSPC/chol/PEG-DMG=50/3/47/1.5, SM-102, ALC-0315 or MC3/DSPC/chol/PEG-DMG=50/10/40/1.5 (mol%).
Where [9] appears, read: Table 7, hEPO mRNA-loaded lipid nanoparticles, TxT/DSPC/chol/PEG-DMG=50/3/47/1.5, SM-102/DSPC/chol/PEG-DMG=50/10/40/1.5 (mol%).

For `CCCCCN(CCCCC)C(=O)CCCC(=O)OCC(COC(=O)CCCC(=O)N(CCCCC)CCCCC)(COC(=O)CCCC(=O)N(CCCCC)CCCCC)NC(=O)CCN1CCCCC1` [TxT-5-5A10, 2-(((5-(dipentylamino)-5-oxopentanoyl)oxy)methyl)-2-(3-(piperidin-1-yl)propanamido)propane-1,3-diyl bis(5-(dipentylamino)-5-oxopentanoate)], in data set [1] (setting [5]), the Pdl is reported as 0.42, the “number average particle size” value is on record as 213.0 nm and the ζ-average particle size was determined as 426.0 nm. In data set [2] (setting [5]), this compound displayed a ζ-potential of -36.4 mV. In data set [3] (setting [5]), this compound had a mRNA concentration of 0.012 µg/µL and a mRNA encapsulation rate of 56.5%. The pKa in data set [4] (Table 1, apparent pKa of Fluc mRNA-loaded lipid nanoparticles, TxT/DSPC/chol/PEG-DMG=50/15/35/1.5 (mol%)) came to 7.94.
With `CCCCCCC(CCCCCC)COC(=O)CCCC(=O)OCC(COC(=O)CCCC(=O)OCC(CCCCCC)CCCCCC)(COC(=O)CCCC(=O)OCC(CCCCCC)CCCCCC)NC(=O)CCN1CCCCC1` [TxT-5-5E14, bis(2-hexyloctyl) O,O'-(2-(((5-((2-hexyloctyl)oxy)-5-oxopentanoyl)oxy)methyl)-2-(3-(piperidin-1-yl)propanamido)propane-1,3-diyl) diglutarate], in data set [1] (setting [6]), the Pdl is 0.17, the “number average particle size” value worked out at 60.2 nm and the ζ-average particle size is given as 95.7 nm. Besides, in data set [1] (setting [7]), the Pdl was found to be 0.14, the “number average particle size” value is reported as 71.1 nm and the ζ-average particle size amounted to 103.3 nm. Besides, the ζ-potential in data set [2] (setting [6]) was -9.7 mV. Besides, the ζ-potential in data set [2] (setting [7]) is reported as -11.6 mV. In data set [3] (setting [6]), the mRNA concentration was found to be 0.022 µg/µL and the mRNA encapsulation rate is given as 98.8%. In data set [3] (setting [7]), this compound came in with a mRNA concentration of 0.024 µg/µL and a mRNA encapsulation rate of 98.3%. The “fluorescence of EGFP in the liver tissues” value (shortened to “fluorescence of EGFP”) in the data set with liver is recorded as “fluorescence of EGFP was observed”. In data set [4] (setting [6]), the pKa is on record as 5.38.
For the compound `CCCCCCCCCCN(CCCCCCCCCC)C(=O)CCC(=O)OCC(COC(=O)CCC(=O)N(CCCCCCCCCC)CCCCCCCCCC)(COC(=O)CCC(=O)N(CCCCCCCCCC)CCCCCCCCCC)NC(=O)CCN1CCCCC1` [TxT-5-4A20, 2-(((4-(didecylamino)-4-oxobutanoyl)oxy)methyl)-2-(3-(piperidin-1-yl)propanamido)propane-1,3-diyl bis(4-(didecylamino)-4-oxobutanoate)], in data set [1] (setting [6]), the Pdl is 0.08, the “number average particle size” value came to 98.6 nm and the ζ-average particle size was 136.8 nm. In addition, in data set [1] (setting [7]), the Pdl was found to be 0.08, the “number average particle size” value was determined as 110.1 nm and the ζ-average particle size worked out at 140.9 nm. The same compound yielded a ζ-potential in data set [2] (setting [6]) of -3.7 mV. In data set [2] (setting [7]), the ζ-potential was -7.4 mV. In data set [3] (setting [6]), this compound displayed a mRNA concentration of 0.019 µg/µL and a mRNA encapsulation rate of 98.4%. In data set [3] (setting [7]), this compound gave a mRNA concentration of 0.021 µg/µL and a mRNA encapsulation rate of 96.2%. Moreover, in the data set with liver, the “fluorescence of EGFP” value was “not detectable”. Moreover, the pKa in data set [4] (setting [6]) amounted to 6.49.
Take `CCCCCCCCC(CCCCCC)C(=O)OCCCCCCN(CCCCO)CCCCCCOC(=O)C(CCCCCC)CCCCCCCC` (centres unmarked) [ALC-0315, reference compound]: in data set [1] (setting [8]), the Pdl is given as 0.13, the “number average particle size” value was 57.0 nm and the ζ-average particle size worked out at 86.0 nm. The ζ-potential in data set [2] (setting [8]) is -2.1 mV. Besides, in data set [3] (setting [8]), the mRNA concentration was found to be 0.025 µg/µL and the mRNA encapsulation rate amounted to 98.4%. Moreover, in data set [4] (setting [8]), the pKa came out at 6.27.
Regarding `CCCCC(CC)CNC(=O)CCCC(=O)OCC(COC(=O)CCCC(=O)NCC(CC)CCCC)(COC(=O)CCCC(=O)NCC(CC)CCCC)NC(=O)CCN1CCCCC1` (stereo not drawn) [TxT-5-5A8β, 2-(((5-((2-ethylhexyl)amino)-5-oxopentanoyl)oxy)methyl)-2-(3-(piperidin-1-yl)propanamido)propane-1,3-diyl bis(5-((2-ethylhexyl)amino)-5-oxopentanoate)], in data set [1] (setting [5]), the Pdl amounted to 0.30, the “number average particle size” value came to 110.3 nm and the ζ-average particle size is listed as 255.9 nm. The compound further gave a ζ-potential in data set [2] (setting [5]) of -18.0 mV. In data set [3] (setting [5]), this compound returned a mRNA concentration of 0.009 µg/µL and a mRNA encapsulation rate of 73.4%.
Take `CCCCN(CCCC)C(=O)CCCC(=O)OCC(COC(=O)CCCC(=O)N(CCCC)CCCC)(COC(=O)CCCC(=O)N(CCCC)CCCC)NC(=O)CCN1CCCCC1` [TxT-5-5A8, 2-(((5-(dibutylamino)-5-oxopentanoyl)oxy)methyl)-2-(3-(piperidin-1-yl)propanamido)propane-1,3-diyl bis(5-(dibutylamino)-5-oxopentanoate)]: in data set [1] (setting [5]), the Pdl is 0.19, the “number average particle size” value is 61.6 nm and the ζ-average particle size is listed as 92.9 nm. The compound further came in with a ζ-potential in data set [2] (setting [5]) of -5.3 mV. In data set [3] (setting [5]), the mRNA concentration is recorded as 0.005 µg/µL and the mRNA encapsulation rate was found to be 23.7%.
On to `CCCCCCCCC(CCCCCC)CNC(=O)CCCC(=O)OCC(COC(=O)CCCC(=O)NCC(CCCCCC)CCCCCCCC)(COC(=O)CCCC(=O)NCC(CCCCCC)CCCCCCCC)NC(=O)CCN1CCCCC1` (stereo not drawn) [TxT-5-5A16β, 2-(((5-((2-hexyldecyl)amino)-5-oxopentanoyl)oxy)methyl)-2-(3-(piperidin-1-yl)propanamido)propane-1,3-diyl bis(5-((2-hexyldecyl)amino)-5-oxopentanoate)], for which, in data set [1] (setting [6]), the Pdl was found to be 0.07, the “number average particle size” value is recorded as 69.3 nm and the ζ-average particle size worked out at 89.4 nm. Also, in data set [1] (setting [7]), the Pdl is given as 0.06, the “number average particle size” value came out at 80.1 nm and the ζ-average particle size was found to be 101.1 nm. Moreover, the ζ-potential in data set [2] (setting [6]) was -7.4 mV. Also, the ζ-potential in data set [2] (setting [7]) is listed as -8.9 mV. In addition, in data set [3] (setting [6]), the mRNA concentration was found to be 0.018 µg/µL and the mRNA encapsulation rate is 99.2%. In data set [3] (setting [7]), this compound gave a mRNA concentration of 0.016 µg/µL and a mRNA encapsulation rate of 99.1%. Also, the “fluorescence of EGFP” value in the data set with liver is recorded as “fluorescence of EGFP was observed”. Also, the pKa in data set [4] (setting [6]) was determined as 4.90.
For the compound `CCCCCCCCCCCOC(=O)CCCCCN(CCO)CCCCCCCC(=O)OC(CCCCCCCC)CCCCCCCC` [SM-102, reference compound], in data set [1] (setting [8]), the Pdl turned out to be 0.21, the “number average particle size” value is on record as 42.0 nm and the ζ-average particle size is 70.4 nm. Besides, in data set [1] (setting [9]), the Pdl is 0.19, the “number average particle size” value amounted to 38.6 nm and the ζ-average particle size amounted to 78.8 nm. In data set [2] (setting [8]), the ζ-potential was -11.0 mV. Further, the ζ-potential in data set [2] (setting [9]) was 0.0 mV. Also, in data set [3] (setting [8]), the mRNA concentration came to 0.018 µg/µL and the mRNA encapsulation rate is on record as 99.6%. In data set [3] (setting [9]), this compound registered a mRNA concentration of 0.015 µg/µL and a mRNA encapsulation rate of 97.5%.

As usually defined, the pKa is the negative logarithm of the acid dissociation constant.
